Test results reported in US11819021B2, “Peptides and methods and uses thereof for modulating anaphase promoting complex (APC) activity” (University of Saskatchewan, priority 2017, dated 2023).
“Also recorded” adds a separate entry of the source. No end group written: not given here.

Assays:
[1] = system: MCF7 human breast cancer cells selected for resistance to Tamoxifen; test: Trypan Blue viability of drug resistant MCF7 breast cancer cells; assay type: cell-based
Experimental: (§1) A. Parental MCF7 human breast cancer cells, or cells selected for resistance to Tamoxifen, were treated with 1 or 5 μM M2I-1. Tamoxifen resistant cells were also treated with both Doxorubicin and M2I-1. Trypan Blue. (3 rpts). ND, no data. B. Protein lysates were prepared from the cells used in A. The APC target HURP was measured using antibodies against HURP. C. Trypan Blue was used to measure viability of OSW canine lymphoma cells pretreated with 1 μmol M2I-1 (18 hrs), followed by 1 μmol DOX (48 hrs). Parental cells were only treated with monotherapy (3 rpts). ND, no data. D. OSW matched cells treated with the APC activator M2I-1 were prepared for APC substrate westerns E. Quantification of western protein abundance (3 rpts).
(§2) Drug resistant human breast cancer cells in culture were treated with the M2I-1 activator.

HURP = test: Western of APC substrates in drug resistant MCF7 cells; assay type: cell-based; conditions: drug resistant human breast cancer cells
Experimental: as §1, §2

[2] = system: OSW canine lymphoma cells; test: Trypan Blue viability of drug resistant OSW lymphoma cells; assay type: cell-based; conditions: OSW dog lymphoma cells selected for drug resistance; 1 μmol M2I-1 (18 hrs) then 1 μmol DOX (48 hrs)
Experimental: as §1, §2

[3] = system: human breast tumor (4-28 PDX); test: Tumor growth in mouse model of patient derived triple negative breast cancer (4-28 PDX); assay type: in vivo; conditions: single 25 mg/kg i.p. injection, Doxorubicin resistant TNBC PDX mouse
Experimental: (§3) A. In vivo study of M2I-1 impact on human breast tumor (4-28 PDX). Single 25 mg/kg i.p. injection (treatment) versus mock (DMSO) day 1, tumor size measured daily. B. Western analysis of apoptosis (PARP cleavage—24 kDa band) and APC substrate abundance (Cyclin B) in liver and tumor of treated and control after sacrifice on Day 6.
(§4) A mouse model for growing patient derived breast tumor cells obtained from a patient with triple negative breast cancer was developed. This patient had developed resistance to Doxorubicin. Tumors growing in these mice grow rapidly. A mouse was injected with 25 mg/kg M2I-1.

Cyclin B = test: Western of APC substrate abundance in PDX tumor; assay type: in vivo, mouse; conditions: 25 mg/kg, after sacrifice on Day 6
Experimental: as §3, §4

Apc10 = molecular target: T1, Apc10 (Saccharomyces cerevisiae, UniProt P53068); test: Yeast 2-hybrid (Y2H) binding of peptide prey to Apc10 bait; conditions: galactose-inducible Trx-scaffold peptide prey
T1 construct: expressed in transfected cells; host or cells: yeast Y2H cells
T1 sequence (P53068 1-250): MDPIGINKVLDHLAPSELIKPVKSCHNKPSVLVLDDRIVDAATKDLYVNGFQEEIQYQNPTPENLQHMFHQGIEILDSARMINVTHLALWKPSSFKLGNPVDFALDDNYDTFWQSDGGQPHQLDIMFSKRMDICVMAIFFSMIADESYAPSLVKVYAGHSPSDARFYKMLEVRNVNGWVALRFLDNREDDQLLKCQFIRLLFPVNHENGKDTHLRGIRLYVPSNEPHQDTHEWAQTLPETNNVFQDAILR
Experimental: (§5) The reverse genetic screen utilized a yeast 2-hybrid (Y2H) protocol that selected for peptides that bound to the APC subunits Apc5 or Apc10 (see FIG. 5 for APC structure), to assess whether peptide-binding might modify APC function. Peptides that bound APC subunits were then assayed for those that suppressed APC mutant defects.
A library of random small peptides were cloned into a Thioredoxin (Trx) scaffold (see FIG. 6 for Trx-aptamer structure) and expressed from a galactose-inducible Y2H prey vector in cells expressing the Apc10 bait vector (the modified Apc10 is still part of the complete APC complex). Six peptides that reproducibly interacted with the Apc10 bait construct in Y2H assays were identified (FIG. 1A) and were examined further.
(§6) Random small peptides were cloned into the TrxA scaffold (library provided by R. Geyer, U of S) and expressed from a galactose-inducible Y2H prey vector in cells harboring either APC5 or APC10 Y2H bait vectors (APC5/APC10 bait constructs complement APC mutant defects).
(§7) Over 100 peptides that bound either Apc5 or Apc10 were recovered from millions screened. Six peptides that reproducibly interacted with the Apc10 bait construct in Y2H assays were examined further. Vectors expressing these 6 peptides were transformed into APC mutant cells and assessed for ts growth.

[4] = system: APC mutant (apc5 temperature sensitive mutant and/or apc10Δ mutant); test: Viability/growth of APC mutant yeast cells; assay type: cell-based
Experimental: (§8) A. apc5^CA cells expressing small peptides were assayed for replicative life span (RLS). B. Cells expressing HTZ1 were grown under stress conditions. HTZ1 expression, even at low levels, suppresses apc5^CA and apc10Δ defects. The cells shown were transformed with either an empty vector or GAL inducible HTZ1. On 2% glucose, the construct is weakly expressed, and this is enough to increase growth of APC mutants at 30° C.
Examples of yeast cells with defective anaphase promoting complex (APC) function include apc5 and apc10 mutants. An example of an apc5 mutant is the apc5 temperature sensitive mutant described herein. An example of an apc10 mutant is the apc10 deletion mutant described herein.
as §5, §7

apc10Δ cells = test: Spot dilution growth of apc10Δ cells expressing peptides; assay type: cell-based, yeast; conditions: 30 and 34° C.
Description: A. Y2H cells expressing the APC subunit bait and the galactose inducible Apc10 peptide prey grown on glucose or galactose. Cells co-expressing the Apc5 or Apc10-bait and Apc10 aptamer-prey vectors were spotted onto the appropriate media, in the presence or absence of galactose (the aptamers are Gal inducible), to confirm 2-hybrid interactions. Growth on trp-his-media ensures both plasmids are maintained. A 2-hybrid interaction will drive expression of the ADE2 gene, allowing growth on ade-media. B. Aptamers that bind Apc10 can suppress APC mutant phenotypes. Spot dilutions of apc10Δ cells expressing an empty vector control or the one of 6 Apc10 aptamers tested. Log phase cells were 10-fold serially diluted and spotted onto plates containing either 2% glucose or 2% galactose. The plates were then incubated at 30° C. (permissive temperature) and 34° C. (restrictive stress). C. Peptides identified as binding to the yeast Apc10 APC subunit using the yeast 2-hybrid screen increase growth of cells on stress conditions. A series of APC binding peptides were transformed into wild type yeast cells, spot diluted, and grown at 30° C. on media supplemented with the normal carbon source (2% glucose). Alternatively, cells were grown on media supplemented with 2% galactose to induce a carbon stress. D. Peptides were expressed in apc5^ts temperature sensitive cells and grown on glucose or galactose media at 30° C.
The cells were exposed to 5 sec of UV from a UV box prior to incubation.
The six peptide expressing vectors were transformed into apc10Δ cells and assessed for temperature sensitive growth. Two of the peptides, C43-4 and C2-4B, suppressed the apc10Δ growth phenotype at 30 and 34° C. (FIG. 1B-D). […]
Over 100 peptides that bound either Apc5 or Apc10 were recovered from millions screened. […] Vectors expressing these 6 peptides were transformed into APC mutant cells and assessed for ts growth.
Methods • 1. […] The growth of the cells was determined by measuring the optical density (OD) of the cells at 600 nm (OD600) • 3. […]

[5] = system: wild type (WT) yeast cells; test: Spot dilution growth and stress resistance of wild type yeast cells expressing peptides; assay type: cell-based
Experimental: (§9) A. apc5^CA (temperature sensitive allele) cells were transformed with C43-4, C2-4B or an empty vector. Cells grown overnight in 2% Glu were struck onto 2% Glucose plates and used for the yeast replicative lifespan (RLS) assay. B. Wild type (WT) cells transformed with C43-4, C2-4B or an empty vector were grown to stationary phase in 2% Glu media, then after 2 days spot diluted onto 2% Glu or 2% Gal to induce expression of the aptamers.
The cells were exposed to 5 sec of UV from a UV box prior to incubation. The plus signs define growth compared to the empty vector control.
(§10) The six peptide expressing vectors were transformed into apc10Δ cells and assessed for temperature sensitive growth. Two of the peptides, C43-4 and C2-4B, suppressed the apc10Δ growth phenotype at 30 and 34° C. (FIG. 1B-D). […] However, C43-4 and C2-4B increased replicative and chronological lifespan in both apc5^CA and WT cells, respectively (FIG. 2A). […] H2O2 induces oxidative stress whereas galactose induces a carbon stress.
These cells were spot diluted on Trp-plates and grown at the temperatures shown and/or exposed to ultraviolet (UV) irradiation (FIG. 11). At low level expression on glucose, some of the mutations caused stress dependent phenotypes.
Methods • 1. Cells were cultured overnight in Trp-2% glucose media • 2. The growth of the cells was determined by measuring the optical density (OD) of the cells at 600 nm (OD600) • 3. Cells were diluted to OD600 of 1 with fresh culture media • 4. 100 ul of each culture was pipetted into a well of a 96 well plate • 5. 10 ul of the each starting culture was pipetted into 90 ul of water in 4 additional wells to make a 10-fold serial spot dilution • 6. 5 ul from each serial dilution was spotted onto plates containing standard growth media with either 2% glucose or 2% galactose using a multi-pipettor • 7. The plates were exposed to UV • 8. The plates were then placed at room temperature, 30, 34 or 37° C. for 3-7 days • 9. The plates were scanned and saved as tiff files

apc5^CA cells = test: Yeast replicative lifespan (RLS) assay; assay type: cell-based
Experimental: as §9, §8

WT cells = test: Chronological lifespan of WT yeast cells; assay type: cell-based
Experimental: as §9, §10

wheat embryos = test: Expression of C43-4 in wheat embryos: localization and germination; assay type: in vivo; conditions: versus empty vector controls
Experimental: (§11) A. Wheat embryos were transformed with an expression vector harboring the C43-4-HA peptide fused to the red fluoresce protein (RFP), or an RFP empty vector, using a ballistic shotgun approach. Embryos were imaged using fluorescence to view RFP. B. Protein lysates were prepared from the transformed embryos and subjected to western analyses using antibodies against the APC substrate Securin. A nonspecific protein band is used to control for protein load.
C43-4 was subcloned into a plant vector and expressed in wheat embryos.
The wheat embryos (scutella) were transformed using a Biolistics-mediated transformation of wheat embryos. Wheat embryos were inoculated with Agrobacterium harbouring an RFP expression vector. Following inoculation with Agrobacterium, embryos were placed on a medium that allows for growth of both the embryos and the Agrobacterium. Timentin was used for killing remaining A. tumefaciens cells after co-cultivation.
Germination rate was determined as a function of time to observe growth from the embryo and on average, the transformed embryos containing the peptide germinated before empty vector controls. […] Accordingly, the Htz1-like peptide (C43-4) activates the APC in plants.

Securin = test: Western of APC substrate in transformed wheat embryos; assay type: cell-based
Experimental: as §11
APC targets APC substrates for degradation such that the relative levels provides an indication of APC activity in a cell. For example, if the substrates are reduced, without being bound by any theory, it is believed to mean that the APC is working better.

APC = test: Yeast 2-hybrid binding to the APC
Description: As used herein, the expression “binds to the APC” refers to a peptide that binds to at least one subunit of the APC, for example Apc5 or Apc10. Binding can be measured for example, by any method known in the art, including, but not limited to a yeast 2-hybrid assay.
as §5, §6

[6] = system: apc5^CA temperature sensitive mutant; test: Forward genetic screen: rescue of apc5^CA temperature sensitive growth; assay type: cell-based, yeast
Description: Using a forward genetic screen to test whether temperature sensitive (ts) APC mutants expressing random small peptides could grow at restrictive temperatures, millions of small peptides were rapidly screened for those that could restore mutant APC phenotypes. Peptides that rescued the apc5^CA ts (temperature sensitive) defect were recovered including peptides Y65 and Y36.
In the forward screens, with galactose-inducible TrxA-based peptide libraries, in cells harboring the apc5^CA ts allele, over 200 peptides (from millions screened) suppressed the ts phenotype. Several recovered plasmids were sequenced.

Cin5 = molecular target: T2, Cin5 (Saccharomyces cerevisiae, UniProt P40917); test: Yeast 2-hybrid with Y65 bait to identify binding partners
T2 construct: expressed in transfected cells; host or cells: yeast Y2H cells
T2 sequence (P40917 1-295): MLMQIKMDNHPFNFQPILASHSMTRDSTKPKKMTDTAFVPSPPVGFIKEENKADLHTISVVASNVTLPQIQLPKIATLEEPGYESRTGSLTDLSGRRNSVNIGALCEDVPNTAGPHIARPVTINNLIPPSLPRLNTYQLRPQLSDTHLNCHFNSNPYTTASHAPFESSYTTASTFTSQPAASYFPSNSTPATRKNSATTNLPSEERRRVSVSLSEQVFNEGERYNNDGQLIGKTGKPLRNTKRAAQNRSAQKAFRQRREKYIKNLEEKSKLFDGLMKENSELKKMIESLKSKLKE
Description: One peptide in particular, Y65, was of interest because it had homology to Elongin C (Elc1; Y65 is 20 amino acids in length, with a 7 residue stretch sharing 86% identity and 100% similarity with Elc1). Elc1 is a ubiquitin-protein ligase (E3) conserved among eukaryotes that is involved in DNA repair (Harreman et al, 2009; Ribar et al, 2007). To identify what the peptides bound in order to modify APC activity, Y65 was cloned into the Y2H bait vector and used to identify binding partners.

CC(C)CN(CC(C)C)c1ccc(C=C2C(=O)NC(=S)NC2=O)cc1[N+](=O)[O-] [M2I-1, Mad2 Inhibitor-1]
Growth / toxicity of activator alone in drug resistant breast cancer cells ([1]; 1 or 5 μM, 18 hrs, Trypan Blue): did not impair the growth; also recorded: not toxic
Cell killing / toxicity in combination with chemotherapy (Doxorubicin) ([1]; Tamoxifen resistant MCF7 cells): only in the presence of M2I-1 were cells killed; also recorded: enhances toxicity
Levels of APC substrates (HURP): reduced
Cell killing in combination with chemotherapy [2]: only in the presence of M2I-1 were cells killed
Tumor growth [3]: stalled
Markers of APC substrates in the tumor (Cyclin B): positive for APC activation

NGSSHNDLRVRRLTLISRLC (also: expressed in thioredoxin scaffold) [C43-4, Peptide aptamer expressed from Thioredoxin scaffold; residues 2-14 homologous to Htz1]
Binds Apc10 in a yeast 2 hybrid assay (Apc10): Binds Apc10
Viability of an APC mutant [4]: increases the viability
apc10Δ growth phenotype (apc10Δ cells): suppressed
Log phase growth of wild type (WT) cells ([5]; 30° C.): Neither C43-4 nor C2-4B influenced
Stress resistance at low level expression ([5]; WT cells on glucose, temperature and/or UV stress, versus empty vector): increased stress resistance
Stress resistance when overexpressed in WT yeast cells ([5]; overexpressed, H2O2 oxidative stress, galactose carbon stress): increased stress resistance
Replicative lifespan (apc5^CA cells): increased
Chronological lifespan (WT cells): increased
Germination of transformed wheat embryos (wheat embryos): germinated faster
Level of tested APC substrate in the embryo (Securin): reduced level

VRQKSDKEYERVLGLGLRRL [Y65, Peptide with homology to Elc1]
Binding to the APC in a yeast 2HY assay (APC): not bind the APC in a yeast 2HY
apc5^CA temperature sensitive (ts) growth / viability of an apc5 temperature sensitive mutant [6]: increases the viability; also recorded: rescued; also recorded: Rescues apc5^CA temperature
Interaction with Cin5 in a yeast 2 hybrid assay (Cin5): One peptide binding partner was isolated, Cin5; also recorded: Interacts with Cin5 in a yeast 2
